Assay results published in ChEMBL document CHEMBL1201862, “PubChem BioAssay data set” (2004).
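Growth conditions: 96-well plates. Treatment: test compound, 48 hours, 5 concentrations. Analysis: linear interpolation between bracketing concentrations; unreached endpoints set to highest concentration. GI50: concentration for 50% inhibition of growth.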 Activity calls are given as the source filed them. No stated cut-off is given here; in the data, active = GI50 up to about 1.1 µM and inactive = higher.

How the values were obtained:
Test in all cases: DTP human tumour cell line panel, 48 h
[1] = test system: ACHN
[2] = test system: BT-549
[3] = test system: DU-145
[4] = test system: HCT-116
[5] = test system: HL-60
[6] = test system: HOP-62
[7] = test system: HT-29
[8] = test system: IGROV-1
[9] = test system: KM12
[10] = test system: LOX IMVI
[11] = test system: MCF7
[12] = test system: NCI-H23
[13] = test system: OVCAR-4
[14] = test system: RPMI-8226
[15] = test system: SF-295
[16] = test system: SK-MEL-2
[17] = test system: SNB-19
[18] = test system: T47D
[19] = test system: UACC-62
[20] = test system: UO-31

Measured: GI50

CC1(C=O)CCC23COC4(CCC5C6(C)CCC(OC7OCC(OC8OC(CO)C(O)C(OC9OC(CO)C(O)C(O)C9O)C8OC8OCC(O)C(O)C8O)C(O)C7OC7OC(CO)C(O)C(O)C7O)C(C)(C)C6CCC5(C)C4(C)CC2O)C3C1 (configuration not stated)
active: [5] 0.356 µM | [7] 0.849 µM | [9] 0.0474 µM | [11] 0.822 µM | [15] 0.908 µM | [17] 0.198 µM
inactive: [1] 1.3 µM | [2] 1.57 µM | [3] 1.46 µM | [4] 1.44 µM | [6] 2.13 µM | [8] 1.42 µM | [10] 1.24 µM | [12] 1.76 µM | [13] 1.16 µM | [14] 1.71 µM | [16] 1.57 µM | [18] 1.61 µM | [19] 1.71 µM | [20] 1.48 µM

CCN(CC)CCN(C)c1ccc(CO)c2c1c(=O)c1ccccc1[s+]2[O-] (configuration not stated)
inactive: [1] 11.1 µM | [2] 13.8 µM | [3] 14.6 µM | [4] 1.88 µM | [5] 16.8 µM | [6] 4.52 µM | [7] 2.11 µM | [8] 16.9 µM | [9] 1.98 µM | [10] 1.78 µM | [11] 9.77 µM | [12] 4.08 µM | [13] 5.6 µM | [14] 2.83 µM | [15] 13.6 µM | [16] 19.9 µM | [17] 13.2 µM | [18] 13.4 µM | [19] 7.06 µM | [20] 16.3 µM

C/C(=N\NC(=S)N1CCCCC1)c1nc2cccnc2[nH]1
inactive: [1] 3.95 µM | [2] 4.3 µM | [3] 14.7 µM | [4] 4.19 µM | [5] 3.35 µM | [6] 9.62 µM | [7] 4.3 µM | [8] 21 µM | [9] 9.02 µM | [10] 7.83 µM | [11] 3.67 µM | [12] 13.6 µM | [13] 4.24 µM | [14] 4.33 µM | [15] 8.51 µM | [16] 22 µM | [17] 15.7 µM | [18] 5.08 µM | [19] 13.7 µM | [20] 4.24 µM

CCOC(=O)Nc1ccc(S(=O)(=O)Nc2ccc(Br)cc2)cc1
inactive: [1] 30.1 µM | [2] 35.1 µM | [3] 65.5 µM | [4] 39.7 µM | [5] 25.6 µM | [6] 33.5 µM | [7] 33.2 µM | [8] 35 µM | [9] 37.3 µM | [10] 26.4 µM | [11] 23.3 µM | [12] 31 µM | [13] 13.6 µM | [14] 25.1 µM | [15] 30.9 µM | [16] 47.1 µM | [17] 73.5 µM | [18] 31.5 µM | [19] 22.4 µM | [20] 34.8 µM

Nc1ccc(-c2nc3cc(F)ccc3s2)cc1CO
active: [8] < 0.01 µM | [11] < 0.01 µM | [12] 0.436 µM | [18] 0.0116 µM
inactive: [1] 25.3 µM | [2] 21.2 µM | [3] > 78.9 µM | [4] 53.6 µM | [5] > 76.9 µM | [6] 17.5 µM | [7] > 100 µM | [9] > 100 µM | [10] 62.7 µM | [13] > 100 µM | [14] > 100 µM | [15] 14.4 µM | [16] 23.9 µM | [17] 27.1 µM | [19] 19.4 µM | [20] 18.1 µM

COc1cc(-c2oc3c(OC)c(O)cc(O)c3c(=O)c2OC)ccc1O
inactive: [1] 3.99 µM | [2] 5.18 µM | [3] 7.06 µM | [4] 6.4 µM | [5] 3.56 µM | [6] 3 µM | [7] 37.4 µM | [8] 3.09 µM | [9] 10 µM | [10] 4.12 µM | [11] 19.7 µM | [12] 16.7 µM | [13] 8.41 µM | [14] 4.09 µM | [15] 17.5 µM | [16] 2.75 µM | [17] 41.4 µM | [18] 2.38 µM | [19] 3.61 µM | [20] 3.08 µM

Cc1c(-c2ccccc2)c(C#N)c2nnn(-c3ccc(Cl)cc3)c(=O)n12
active: [10] 0.714 µM | [19] 0.869 µM
inactive: [1] 4.26 µM | [2] 56.8 µM | [3] 38.5 µM | [4] 12.8 µM | [5] 4.43 µM | [6] 7.14 µM | [7] 15.8 µM | [8] 32.7 µM | [9] 24.2 µM | [11] 7.59 µM | [12] 37 µM | [13] 25.8 µM | [14] 23.5 µM | [15] 7.06 µM | [16] 26.8 µM | [17] > 100 µM | [18] 6.14 µM | [20] 22.5 µM

N=c1oc2ccccc2cc1-c1nc2ccccc2c(=O)[nH]1
inactive: [1] 22.1 µM | [2] 23.8 µM | [3] > 100 µM | [4] 42.9 µM | [5] 45.7 µM | [6] 22.7 µM | [7] 39.1 µM | [8] 6 µM | [9] 39.8 µM | [10] 54.5 µM | [11] 19.5 µM | [13] > 100 µM | [14] > 100 µM | [15] 32.7 µM | [16] 58.9 µM | [17] 30.1 µM | [18] > 100 µM | [19] 27.8 µM | [20] 27.1 µM

CCOC1CN=C(Nc2cccc3ccccc23)S1 (configuration not stated)
inactive: [1] > 10 µM | [2] > 10 µM | [3] > 10 µM | [4] > 10 µM | [5] > 10 µM | [6] > 10 µM | [7] > 10 µM | [8] > 10 µM | [9] > 10 µM | [10] > 10 µM | [11] > 10 µM | [12] > 10 µM | [13] > 10 µM | [14] > 10 µM | [15] > 10 µM | [16] > 10 µM | [17] > 10 µM | [18] > 10 µM | [19] > 10 µM

O=C(Nc1ccn(C2CC(O)C(CO)O2)c(=O)n1)c1ccccc1 (configuration not stated)
inactive: [1] > 100 µM | [2] > 100 µM | [3] > 100 µM | [4] > 100 µM | [5] > 100 µM | [6] > 100 µM | [7] > 100 µM | [8] > 100 µM | [9] > 100 µM | [10] > 100 µM | [11] > 100 µM | [12] > 100 µM | [13] > 100 µM | [14] > 100 µM | [15] > 100 µM | [16] > 100 µM | [17] > 100 µM | [18] > 100 µM | [19] > 100 µM
